In patent publication US11274332B2, “Methods of administering 3,4-diaminopyridine” (SERB SA, priority 2011, dated 2022):

Assay: Food-effect crossover study, adverse events after single 20 mg amifampridine phosphate in healthy subjects (Examples 10, 11)
Type: in vivo
Experimental: This was a randomized, open-label, 2-treatment, 2-period crossover study with 44 completed subjects to assess the safety, tolerability, and the effect of food on the relative bioavailability of a single dose of amifampridine phosphate.
Safety was evaluated for all subjects who take at least one dose of 3,4-DAP. Safety was evaluated by recording the incidence of adverse events (AEs), physical examination, vital signs, concomitant medications, clinical laboratory assessments, and 12-lead electrocardiogram (ECG).
Analysis for the following safety parameters was carried out on the Safety Population: AEs which included all AEs, AEs by severity, drug-related AEs, deaths, SAEs, AEs leading to study discontinuation, and most frequent AEs, standard clinical laboratory tests, vital signs, ECG measurements, routine physical examinations, and prior and concomitant medications. The cut-off for frequency of AEs reported was determined based on the data. No formal statistical testing was performed for the safety analyses; only descriptive statistics were provided. Appropriate descriptive statistics for the safety data were determined using SAS Version 9.2.
AEs were coded according to the Medical Dictionary for Regulatory Activities (MedDRA; Version 13.0). […] The occurrence of AEs was assessed continuously from the time the subject signed the VID and consent. The reporting period for non-serious AEs was from the first dose to the final study visit. The investigator determined the severity of each event and the relationship of an AE to the IP and recorded it on the source documents and AE CRF. The nature, time of onset, duration, severity, and relationship to study drug was documented, including documentation of investigator assessment and review. All events were assessed to determine if the AE was serious.
The Investigator determined the severity of each event and the event was recorded on the source documents and AE CRF. A coding of “mild” meant there was no limitation of usual activities, “moderate” meant there was some limitation of usual activities, “severe” meant there was an inability to carry out usual activities.
The reporting period for AEs that met the criteria of an SAE began from the time of signing the VID and consent form through follow-up or early termination. […] Clinical Laboratory Assessments

Nc1ccncc1N.O=P(O)(O)O [amifampridine phosphate, 3,4-diaminopyridine phosphate]
Paraesthesia, drug-related AE: subjects (Male N=31): 6 | Possibly or probably related AEs, Mild: % of subjects (Male N=31): 58% | Possibly or probably related AEs, Mild: events (Male N=31): 51 | Possibly or probably related AEs, Mild: subjects (Male N=31): 18 | Possibly or probably related AEs, Moderate: % of subjects (Male N=31): (0%) [0] | Possibly or probably related AEs, Moderate: events (Male N=31): (0%) [0] | Possibly or probably related AEs, Moderate: subjects (Male N=31): 0 | Possibly or probably related AEs, Severe: % of subjects (Male N=31): (0%) [0] | Possibly or probably related AEs, Severe: events (Male N=31): (0%) [0] | Possibly or probably related AEs, Severe: subjects (Male N=31): 0 | Possibly or probably related AEs, Total: % of subjects (Male N=31): 58% | Possibly or probably related AEs, Total: events (Male N=31): 51 | Possibly or probably related AEs, Total: subjects (Male N=31): 18 | Serious adverse events: % of subjects (Male N=31): (0%) [0] | Serious adverse events: events (Male N=31): (0%) [0] | Serious adverse events: subjects (Male N=31): 0 | Skin and Subcutaneous Tissue Disorders Total, drug-related AE: % of subjects (Male N=31): 3% | Skin and Subcutaneous Tissue Disorders Total, drug-related AE: events (Male N=31): 1 | Skin and Subcutaneous Tissue Disorders Total, drug-related AE: subjects (Male N=31): 1 | Vascular Disorders Total, drug-related AE: % of subjects (Male N=31): (0%) [0] | Vascular Disorders Total, drug-related AE: events (Male N=31): (0%) [0] | Vascular Disorders Total, drug-related AE: subjects (Male N=31): 0 | paraesthesias among the 93 drug-related AEs: % of events (Overall): 54% | paraesthesias among the 93 drug-related AEs: events (Overall): 50 | Abdominal Pain Upper, drug-related AE: % of subjects (Overall N=47): 4% | Abdominal Pain Upper, drug-related AE: events (Overall N=47): 2 | Abdominal Pain Upper, drug-related AE: subjects (Overall N=47): 2 | Abdominal Pain, drug-related AE: % of subjects (Overall N=47): 6% | Abdominal Pain, drug-related AE: events (Overall N=47): 3 | Abdominal Pain, drug-related AE: subjects (Overall N=47): 3 | Abdominal Tenderness, drug-related AE: % of subjects (Overall N=47): 2% | Abdominal Tenderness, drug-related AE: events (Overall N=47): 1 | Abdominal Tenderness, drug-related AE: subjects (Overall N=47): 1 | Acne, drug-related AE: % of subjects (Overall N=47): 2% | Acne, drug-related AE: events (Overall N=47): 1 | Acne, drug-related AE: subjects (Overall N=47): 1 | All treatment emergent AEs, Mild: % of subjects (Overall N=47): 64% | All treatment emergent AEs, Mild: events (Overall N=47): 98 | All treatment emergent AEs, Mild: subjects (Overall N=47): 30 | All treatment emergent AEs, Moderate: % of subjects (Overall N=47): 4% | All treatment emergent AEs, Moderate: events (Overall N=47): 2 | All treatment emergent AEs, Moderate: subjects (Overall N=47): 2 | All treatment emergent AEs, Severe: % of subjects (Overall N=47): 2% | All treatment emergent AEs, Severe: events (Overall N=47): 1 | All treatment emergent AEs, Severe: subjects (Overall N=47): 1 | All treatment emergent AEs, Total: events (Overall N=47): 101 | All treatment emergent AEs, Total: subjects (Overall N=47): 31 | Constipation, drug-related AE: % of subjects (Overall N=47): 2% | Constipation, drug-related AE: events (Overall N=47): 1 | Constipation, drug-related AE: subjects (Overall N=47): 1 | Diarrhoea, drug-related AE: % of subjects (Overall N=47): 2% | Diarrhoea, drug-related AE: events (Overall N=47): 1 | Diarrhoea, drug-related AE: subjects (Overall N=47): 1 | Discontinued due to adverse events: % of subjects (Overall N=47): 2% | Discontinued due to adverse events: events (Overall N=47): 1 | Discontinued due to adverse events: subjects (Overall N=47): 1 | Dizziness, drug-related AE: % of subjects (Overall N=47): 11% | Dizziness, drug-related AE: events (Overall N=47): 7 | Dizziness, drug-related AE: subjects (Overall N=47): 5 | Dysgeusia, drug-related AE: % of subjects (Overall N=47): 4% | Dysgeusia, drug-related AE: events (Overall N=47): 3 | Dysgeusia, drug-related AE: subjects (Overall N=47): 2 | Fatigue, drug-related AE: % of subjects (Overall N=47): 9% | Fatigue, drug-related AE: events (Overall N=47): 4 | Fatigue, drug-related AE: subjects (Overall N=47): 4 | Feeling Hot, drug-related AE: % of subjects (Overall N=47): 2% | Feeling Hot, drug-related AE: events (Overall N=47): 1 | Feeling Hot, drug-related AE: subjects (Overall N=47): 1 | Flushing, drug-related AE: % of subjects (Overall N=47): 2% | Flushing, drug-related AE: events (Overall N=47): 1 | Flushing, drug-related AE: subjects (Overall N=47): 1 | Gastrointestinal Disorders Total, drug-related AE: % of subjects (Overall N=47): 19% | Gastrointestinal Disorders Total, drug-related AE: events (Overall N=47): 12 | Gastrointestinal Disorders Total, drug-related AE: subjects (Overall N=47): 9 | General Disorders and Administration Site Conditions Total, drug-related AE: % of subjects (Overall N=47): 11% | General Disorders and Administration Site Conditions Total, drug-related AE: events (Overall N=47): 5 | General Disorders and Administration Site Conditions Total, drug-related AE: subjects (Overall N=47): 5 | Headache, drug-related AE: % of subjects (Overall N=47): 11% | Headache, drug-related AE: events (Overall N=47): 5 | Headache, drug-related AE: subjects (Overall N=47): 5 | Hypoaesthesia Facial, drug-related AE: % of subjects (Overall N=47): 2% | Hypoaesthesia Facial, drug-related AE: events (Overall N=47): 1 | Hypoaesthesia Facial, drug-related AE: subjects (Overall N=47): 1 | Hypoaesthesia Oral, drug-related AE: % of subjects (Overall N=47): 11% | Hypoaesthesia Oral, drug-related AE: events (Overall N=47): 6 | Hypoaesthesia Oral, drug-related AE: subjects (Overall N=47): 5 | Hypoaesthesia, drug-related AE: % of subjects (Overall N=47): 4% | Hypoaesthesia, drug-related AE: events (Overall N=47): 2 | Hypoaesthesia, drug-related AE: subjects (Overall N=47): 2 | Nausea, drug-related AE: % of subjects (Overall N=47): 9% | Nausea, drug-related AE: events (Overall N=47): 4 | Nausea, drug-related AE: subjects (Overall N=47): 4 | Nervous System Disorders Total, drug-related AE: % of subjects (Overall N=47): 57% | Nervous System Disorders Total, drug-related AE: events (Overall N=47): 74 | Nervous System Disorders Total, drug-related AE: subjects (Overall N=47): 27 | Paraesthesia Oral, drug-related AE: % of subjects (Overall N=47): 43% | Paraesthesia Oral, drug-related AE: events (Overall N=47): 30 | Paraesthesia Oral, drug-related AE: subjects (Overall N=47): 20 | Paraesthesia, drug-related AE: % of subjects (Overall N=47): 26% | Paraesthesia, drug-related AE: events (Overall N=47): 20 | Paraesthesia, drug-related AE: subjects (Overall N=47): 12 | Possibly or probably related AEs, Mild: % of subjects (Overall N=47): 64% | Possibly or probably related AEs, Mild: events (Overall N=47): 92 | Possibly or probably related AEs, Mild: subjects (Overall N=47): 30 | Possibly or probably related AEs, Moderate: % of subjects (Overall N=47): 2% | Possibly or probably related AEs, Moderate: events (Overall N=47): 1 | Possibly or probably related AEs, Moderate: subjects (Overall N=47): 1 | Possibly or probably related AEs, Severe: % of subjects (Overall N=47): (0%) [0] | Possibly or probably related AEs, Severe: events (Overall N=47): (0%) [0] | Possibly or probably related AEs, Severe: subjects (Overall N=47): 0 | Possibly or probably related AEs, Total: % of subjects (Overall N=47): 64% | Possibly or probably related AEs, Total: events (Overall N=47): 93 | Possibly or probably related AEs, Total: subjects (Overall N=47): 30 | Serious adverse events: % of subjects (Overall N=47): (0%) [0] | Serious adverse events: events (Overall N=47): (0%) [0] | Serious adverse events: subjects (Overall N=47): 0 | Skin and Subcutaneous Tissue Disorders Total, drug-related AE: % of subjects (Overall N=47): 2% | Skin and Subcutaneous Tissue Disorders Total, drug-related AE: events (Overall N=47): 1 | Skin and Subcutaneous Tissue Disorders Total, drug-related AE: subjects (Overall N=47): 1 | Vascular Disorders Total, drug-related AE: % of subjects (Overall N=47): 2% | Vascular Disorders Total, drug-related AE: events (Overall N=47): 1 | Vascular Disorders Total, drug-related AE: subjects (Overall N=47): 1 | safety and tolerability (single oral 20 mg, fed and fasted): safe and well tolerated | deaths or SAEs (whole study): no deaths or SAEs
